Source: patent US20110065723A1, “COMPOSITIONS OF N-BENZYL-3-(4-CHLOROPHENYL)-2-[METHYL-[2-OXO-2-(3,4,5-TRIMETHOXYPHENYL)ACETYL]AMINO]-N-[3-(4-PYRIDYL)-1-[2-(4-PYRIDYL)ETHYL]PROPYL]PROPANAMIDE AND USES THEREOF” (priority 2009, published 2011)

Tests used:
[1] = tested on: Mycobacterium tuberculosis Erdman strain (Mtb ATCC 35801); assay: Susceptibility testing (broth microdilution MIC) with or without TIM; format: cell-based; conditions: TIM 10 μg/ml
Mtb Erdman = assay: Mouse infection model (lung CFU); format: in vivo, C57BL/6 mice; conditions: mice, lungs; TIM 200, INH 25 mg/kg; 4 weeks; FIG. 4B; not to the same extent as RIF, statistically significant
[2] = tested on: Mycobacterium tuberculosis Erdman strain in macrophages; assay: Mtb-THP-1 macrophage infection screening assay; format: cell-based
in vivo = conditions: C57BL/6, mouse, po, 10 mg/kg; for AUC(0-inf): RIF AUCinf Plasma; for Cmax: RIF Cmax Plasma
[3] = RIF 10 mg/kg + TIM 200 mg/kg dosed 6 hours prior to RIF

Q: Which “in vitro effect of TIM on the activity of the drug against Mtb” value (“in vitro effect of TIM” below) [1] does the source give for `NNC(=O)c1ccncc1` [Isoniazid, isoniazid] here?
A: The value was “no in vitro effect”.

Q: What about the “effect of TIM on activity in vivo” value (Mtb Erdman) of the same compound?
A: Its value is “does enhance INH activity in vivo”.

Q: With `CC(=O)NC[C@H]1CN(c2ccc(N3CCOCC3)c(F)c2)C(=O)O1` [Linezolid] as the compound, how does the “in vitro effect of TIM” value [1] read?
A: Its value is “no in vitro effect”.

Q: What does the source list for `CO[C@H]1/C=C/O[C@@]2(C)Oc3c(C)c(O)c4c(O)c(c(/C=N/N5CCN(C)CC5)c(O)c4c3C2=O)NC(=O)/C(C)=C\C=C\[C@H](C)[C@H](O)[C@@H](C)[C@@H](O)[C@@H](C)[C@H](OC(C)=O)[C@@H]1C` [RIF, rifampicin]?
A: Log10 CFU ([2]; Drug conc. 0.04 ug/mL): 4.71 Log10 CFU; Log10 CFU ([2]; Drug conc. 0.1 ug/mL): 4.47 Log10 CFU; Log10 CFU ([2]; Drug conc. 0.4 ug/mL): 4.58 Log10 CFU; Log10 CFU ([2]; Drug conc. 1.1 ug/mL): 3.98 Log10 CFU; Log10 CFU ([2]; Drug conc. 3.3 ug/mL): 1.94 Log10 CFU; Log10 CFU ([2]; Drug conc. 10 ug/mL): 2.12 Log10 CFU; Log10 CFU ([2]; Drug conc. 30 ug/mL): 1.10 Log10 CFU; AUC(0-inf) (in vivo; [3]): 153 µg·h/mL; AUC(0-inf) (in vivo; RIF 10 mg/kg alone): 152 µg·h/mL; Cmax (in vivo; [3]): 14900 ng/mL; Cmax (in vivo; RIF 10 mg/kg alone): 19800 ng/mL

Q: With `CO[C@H]1/C=C/O[C@@]2(C)Oc3c(C)c(O)c4c(O)c(c(/C=N/N5CCN(C6CCCC6)CC5)c(O)c4c3C2=O)NC(=O)/C(C)=C\C=C\[C@H](C)[C@H](O)[C@@H](C)[C@@H](O)[C@@H](C)[C@H](OC(C)=O)[C@@H]1C` [Rifapentine, rifapentine] as the compound, how does the “in vitro effect of TIM” value [1] read?
A: Its value is “no in vitro effect”.

Q: With `COc1nc2ccc(Br)cc2cc1[C@@H](c1ccccc1)[C@@](O)(CCN(C)C)c1cccc2ccccc12` [TMC-207] as the compound, how does the “potentiating effect of TIM on the activity against Mtb” value ([1]; MIC without vs with TIM) read?
A: The value was 15 fold.

Q: For `CC(=O)NC[C@H]1CN(c2ccc(N3CCSCC3)c(F)c2)C(=O)O1` [U-100480], which “in vitro effect of TIM” value [1] is on record?
A: Its value is “no in vitro effect”.

Q: With `CCc1cc(C(N)=S)ccn1` [ethionamide] as the compound, how does the “in vitro effect of TIM” value [1] read?
A: The value was “no in vitro effect”.

Q: With `COc1c(N2CCNC(C)C2)c(F)cc2c(=O)c(C(=O)O)cn(C3CC3)c12` (centres unmarked) [gatifloxacin] as the compound, how does the “in vitro effect of TIM” value [1] read?
A: Its value is “no in vitro effect”.

Q: For acriflavin, which “in vitro effect of TIM” value [1] is on record?
A: Its value is “no in vitro effect”.
